Molecules are shown by their SMILES.

Assay [1] deals with Influenza A virus. In words: Inhibitory activity against sialidase of influenza A. Type of assay: functional, organism-based.
Assay [2] has as its system Influenza B virus. In words: Inhibitory activity against sialidase of influenza B. Type of assay: functional, organism-based.
In assay [3] the test system is Influenza B virus. Briefly: Inhibitory activity against sialidase of influenza B at a concentration of 660 uM. Type of assay: functional.

On to `CCCO[C@@H]1C=C(C(=O)O)C[C@H](N)[C@H]1NC(C)=O`, for which, in assay [1], the 50% inhibitory concentration (IC50) was determined as 0.13 µM.
As for `CCCO[C@@H]1CC2(C(=O)O)CC[C@@]1(NC(C)=O)[C@@H](O)C2` (single isomer, unassigned), the IC50 in assay [1] and in assay [2] was 660 µM throughout. In assay [3], this compound displayed an inhibition at 660 µM of 12%.

The record behind these values is ChEMBL document CHEMBL1131953, “Synthesis of a tetrasubstituted bicyclo [2.2.2] octane as a potential inhibitor of influenza virus sialidase” (Bioorg Med Chem Lett, 1999).
